Experimental data taken from patent US20260325538A1, “THERAPY” (priority 2023, published 2026).

How the values were obtained:
[1] = tested on: Klebsiella pneumoniae Kpn St147 (NDM-1 and KPC-2); experiment: MIC determination of cefepime with zinc chelator and avibactam (checkerboard, broth microdilution); assay type: cell-based; conditions: with FEP and zinc chelator
Procedure: (§1) Antimicrobial susceptibility testing (AST) by broth microdilution was performed according to The European Committee on Antimicrobial Susceptibility Testing. Reading guide for broth microdilution. Version 4.0, 2022 (see: http://www.eucast.org).
(§2) Checkerboard 96-well plates (Corning 3788) were made by conducting serial two-fold dilutions of cefepime in cation-adjusted Mueller Hinton II broth (caMHB; Thermo Scientific, T3462), in columns across the microtiter plate (64-0.03 μg/ml). Additionally, avibactam was added to rows 3 to 8 in concentrations of 64, 16, 8, 4, 1 and 0.25 μg/ml, respectively. The zinc chelator was added to the wells of the plate, where applicable. Three plates were made per experiment, one without the zinc chelator (plate 1), one with 16 μg/ml of the zinc chelator (plate 2) and one with 32 μg/ml of the zinc chelator (plate 3). The first row in all plates was used as a positive control for cefepime only, and the second row included the zinc chelator in addition to cefepime (no avibactam added to rows 1 or 2). The zinc chelator was added at the indicated concentration, to rows 3-8 of plates 2 and 3.
(§3) The effect of the combination of zinc chelator/FEP/avibactam was tested on a clinically isolated Klebsiella pneumoniae Kpn St147 actively constitutionally expressing the two resistance mechanisms NDM-1 and KPC-2 simultaneously. As a negative control, bacteria+FEP was tested alone. As a positive control, bacteria+FEP+zinc chelator was used. In Tables 1 and 2, concentrations (μg/ml) of FEP are given in the top row left to right and avibactam concentrations (μg/ml) are given top to bottom in column 1.
(§4) The fractional inhibitory concentration (FIC) is defined as the concentration that kills when used in combination with another agent divided by the concentration that has the same effect when used alone. The FIC index (FICI) for the combination of two agents is the sum of their individual FIC values. […] The European Committee for Antimicrobial Susceptibility Testing (EUCAST) of the European Society of Clinical Microbiology and Infectious Diseases (ESCMID) 2000 adopts the following definitions to determine the susceptibility of bacteria to an antimicrobial agent (see EUCAST Definitive Document E. Def 1.2: Terminology relating to methods for the determination of susceptibility of bacteria to antimicrobial agents. Clin. Microbiol. Infect. 2000; 6(9): 503-508): • FICI value≤0.5; synergy • 0.5<FICI value≤1; additive effect • 1<FICI value≤2; indifferent effect • FICI≥2; antagonistic effect
To test for synergy, all data were subjected to the following formula in which A=zinc chelator; B=cefepime; and C=avibactam:
(§5) ΣFICI=MICA(combination)/MICA (alone)+MICB(combination)/MICB (alone)+MICC(combination)/MICC (alone)

[2] = tested on: Klebsiella pneumoniae Kpn St147 (NDM-1 and KPC-2); experiment: MIC determination of ceftazidime with zinc chelator and avibactam (checkerboard, broth microdilution); assay type: cell-based; conditions: with CAZ and zinc chelator
Excerpt: as §4, §1
as §2, with “CAZ” for “cefepime”, “Three plates were made per experiment, one without the zinc chelator (plate 1), one with 16 μg/ml of the zinc chelator (plate 2) and one with 32 μg/ml of the zinc chelator (plate 3).” left out, “concentration” for “concentration,”
as §3, with “zinc chelator/CAZ/avibactam” for “zinc chelator/FEP/avibactam”, “control, bacteria+CAZ” for “control, bacteria+FEP”, “control, bacteria+CAZ+zinc” for “control, bacteria+FEP+zinc”, “Tables 3” for “Tables 1”, “and 4,” for “and 2,”, “of CAZ” for “of FEP”
as §5

[3] = tested on: MBL-producers; conditions: in combination with cefepime; cited from earlier work
[4] = tested on: MBL class IMP; conditions: in combination with cefepime; cited from earlier work
[5] = tested on: gram-negative bacteria with MBL, for example Klebsiella pneumoniae, E. coli and Pseudomonas aeruginosa; conditions: meropenem used alone; cited from earlier work
[6] = tested on: NDM; conditions: cited from earlier work

NC(=O)[C@@H]1CC[C@@H]2CN1C(=O)N2OS(=O)(=O)O [Avibactam, avibactam]
FICI Avibactam ([1]; avibactam 0.25 μg/mL): 0.0001 | FICI Avibactam ([1]; avibactam 1 μg/mL): 0.0005 | FICI Avibactam ([1]; avibactam 4 μg/mL): 0.0020 | FICI Avibactam ([1]; avibactam 8 μg/mL): 0.0039 | FICI Avibactam ([1]; avibactam 16 μg/mL): 0.0078 | FICI Avibactam ([2]; avibactam 0.25 μg/mL): 0.0001 | FICI Avibactam ([2]; avibactam 1 μg/mL): 0.0005 | FICI Avibactam ([2]; avibactam 4 μg/mL): 0.0020 | FICI Avibactam ([2]; avibactam 8 μg/mL): 0.0039 | FICI Avibactam ([2]; avibactam 16 μg/mL): 0.0078

NCCN[C@H]1CC[C@H](CC(=O)N[C@H]2Cc3cccc(C(=O)O)c3OB2O)CC1 [taniborbactam]
activity against MBL-producers [3]: potent activity | effect against MBL class IMP [4]: no effect

C[C@@H](O)[C@H]1C(=O)N2C(C(=O)O)=C(S[C@@H]3CN[C@H](C(=O)N(C)C)C3)[C@H](C)[C@H]12 [meropenem]
sensitivity of gram-negative bacteria with MBL [5]: resistant to the antibiotic

N[C@@H](CN[C@@H](CN[C@@H](CC(=O)O)C(=O)O)C(=O)O)C(=O)O [aspergillomarasmine A]
in vivo activity ([6]; mouse models): shown in vivo activity in mouse models | doses required to reverse carbapenem resistance ([6]; mouse, in vivo): relatively high doses
